Measurements as given in patent US20160176867A1, “MODIFIED BET-PROTEIN-INHIBITING DIHYDROQUINOXALINONES AND DIHYDROPYRIDOPYRAZINONES” (BAYER PHARMA AKTIENGESELLSCHAFT, priority 2013, published 2016).

What was measured:
[1] = biological target: T1, BRD4 bromo domain 1 [BRD4(1)] (Homo sapiens, UniProt O60885); assay: BRD4/acetylated peptide H4 binding assay (TR-FRET), BRD4 bromo domain 1; settings: inhibition of BRD4(1)/Ac-H4 peptide interaction
T1 construct: N-terminally His6-tagged BRD4(1) (amino acids 67-152); made in house; host or cells: E. coli
Description: (§1) Protein-Protein Interaction Assay: BRD4/Acetylated Peptide H4 Binding Assay
To assess the BRD4(1) binding strength of the substances described in this application, the ability thereof to inhibit the interaction between BRD4(1) and acetylated histone H4 in a dose-dependent manner was quantified.
(§2) For this purpose, a time-resolved fluorescence resonance energy transfer (TR-FRET) assay was used, which measures the binding between N-terminally His6-tagged BRD4(1) (amino acids 67-152) and a synthetic acetylated histone H4 (Ac-H4) peptide with sequence GRGK(Ac)GGK(Ac)GLGK(Ac)GGAK(Ac)RHGSGSK-biotin. The recombinant BRD4(1) protein produced in-house according to Filippakopoulos et al., Nature, 2010, 468:1119-1123 and Cell, 2012, 149:214-231, was expressed in E. coli and purified by means of (Ni-NTA) affinity and (Sephadex G-75) size exclusion chromatography. The Ac-H4 peptide can be purchased, for example, from Biosyntan (Berlin, Germany).
(§3) In the assay, typically 11 different concentrations of each substance (0.1 nM, 0.33 nM, 1.1 nM, 3.8 nM, 13 nM, 44 nM, 0.15 μM, 0.51 μM, 1.7 μM, 5.9 μM and 20 μM) were analysed as duplicates on the same microtitre plate. For this purpose, 100-fold concentrated solutions in DMSO were prepared by serial dilutions (1:3.4) of a 2 mM stock solution into a clear, 384-well microtitre plate (Greiner Bio-One, Frickenhausen, Germany). From this, 50 nl were transferred into a black test plate (Greiner Bio-One, Frickenhausen, Germany). The test was started by the addition of 2 μl of a 2.5-fold concentrated BRD4(1) solution (final concentration typically 10 nM in the 5 μl of reaction volume) in aqueous assay buffer [50 mM HEPES pH 7.5, 50 mM sodium chloride (NaCl), 0.25 mM CHAPS and 0.05% serum albumin (BSA)] to the substances in the test plate. This was followed by a 10-minute incubation step at 22° C. for the pre-equilibration of putative complexes between BRD4(1) and the substances.
(§4) The mixture was then incubated in the dark at 22° C. for one hour and then at 4° C. for at least 3 hours and for no longer than overnight. The formation of BRD4(1)/Ac-H4 complexes was determined by the measurement of the resonance energy transfer from the streptavidin-Eu cryptate to the anti-6His-XL665 antibody present in the reaction. For this purpose, the fluorescence emission was measured at 620 nm and 665 nm after excitation at 330-350 nm in a TR-FRET measuring instrument, for example a Rubystar or Pherastar (both from BMG Lab Technologies, Offenburg, Germany) or a Viewlux (Perkin-Elmer). The ratio of the emissions at 665 nm and at 622 nm was taken as an indicator of the amount of BRD4(1)/Ac-H4 complexes formed.
(§5) The data (ratios) obtained were normalized, with 0% inhibition corresponding to the mean from the measurements for a set of controls (typically 32 data points) in which all the reagents were present. In these, in place of test substances, 50 nl of DMSO (100%) were used. Inhibition of 100% corresponded to the mean from the measurements for a set of controls (typically 32 data points) in which all the reagents except BRD4(1) were present. The IC50 was determined by regression analysis based on a 4-parameter equation (minimum, maximum, IC50, Hill; Y=max+(min−max)/(1+(X/IC50)Hill)).

[2] = biological target: T2, BRD4 bromo domain 2 [BRD4(2)] (Homo sapiens, UniProt O60885); assay: BRD4/acetylated peptide H4 binding assay (TR-FRET), BRD4 bromo domain 2; settings: inhibition of BRD4(2)/Ac-H4 peptide interaction
T2 construct: N-terminally His6-tagged BRD4(2) (amino acids 357-445); made in house; host or cells: E. coli
Description: as §1
To assess the BRD4(2) binding strength of the substances described in this application, the ability thereof to inhibit the interaction between BRD4(2) and acetylated histone H4 in a dose-dependent manner was quantified.
as §2, with “BRD4(2)” for “BRD4(1)”, “357-445)” for “67-152)”, “SGRGK(Ac)GGK(Ac)GLGK(Ac)GGAK(Ac)RHRKVLRDNGSGSK-biotin.” for “GRGK(Ac)GGK(Ac)GLGK(Ac)GGAK(Ac)RHGSGSK-biotin.”
as §3, with “concentrated BRD4(2)” for “concentrated BRD4(1)”, “typically 100” for “typically 10”, “chloride (NaCl); 50 mM potassium fluoride (KF);” for “chloride (NaCl),”, “between BRD4(2)” for “between BRD4(1)”, “substances. Subsequently, 3 μl of a 1.67-fold concentrated solution (in assay buffer) consisting of Ac-H4 peptide (83.5 nM) and TR-FRET detection reagents [83.5 nM anti-6His-XL665 (Cisbio Bioassays, Codolet, France) and 12.52 nM streptavidin-Eu), (Perkin Elmer, #W1024)] in assay buffer were added.” for “substances.”
as §4, with “BRD4(2)/Ac-H4” for “BRD4(1)/Ac-H4”, “chelate” for “cryptate”
as §5, with “BRD4(2)” for “BRD4(1)”

Compound | IC50 [1] [nM] | IC50 [2] [nM]
COc1ccc(CN2c3cc(Nc4cccc(S(=O)(=O)N5CCOCC5)c4)ccc3N(C)C(=O)[C@H]2C)cc1 [Example 11, (3R)-4-(4-Methoxybenzyl)-1,3-dimethyl-6-{[3-(morpholin-4-ylsulphonyl)phenyl]amino}-3,4-dihydroquinoxalin-2(1H)-one] | 208 | 48
COc1ccc(C(=O)N2CCN(C)CC2)cc1Nc1ccc2c(n1)N(C1CCOCC1)[C@H](C)C(=O)N2C [Example 17, (3R)-6-({2-Methoxy-5-[(4-methylpiperazin-1-yl)carbonyl]phenyl}amino)-1,3-dimethyl-4-(tetrahydro-2H-pyran-4-yl)-3,4-dihydropyrido[2,3-b]pyrazin-2(1H)-one] | 129 | 60
COc1ccc(C(=O)NCCN(C)C)cc1Nc1ccc2c(n1)N(C1CCOCC1)[C@H](C)C(=O)N2C [Example 19, N-2-(Dimethylamino)ethyl-3-{[(3R)-1,3-dimethyl-2-oxo-4-(tetrahydro-2H-pyran-4-yl)-1,2,3,4-tetrahydropyrido[2,3-b]pyrazin-6-yl]amino}-4-methoxybenzamide] | 234 | 132
C[C@@H]1C(=O)N(C)c2ccc(Nc3cccc(C(=O)N[C@H]4CC[C@H](N5CCN(CC6CC6)CC5)CC4)c3)cc2N1Cc1c(F)cccc1F [Example 22, N-{trans-4-[4-(Cyclopropylmethyl)piperazin-1-yl]cyclohexyl}-3-{[4-(2,6-difluorobenzyl)-1,3-dimethyl-2-oxo-1,2,3,4-tetrahydroquinoxalin-6-yl]amino}benzamide] | 708 | 157
CCN(CC)S(=O)(=O)c1cccc(Nc2ccc3c(n2)N(C2CCOCC2)[C@H](C)C(=O)N3C)c1 [Example 32, 3-{[(3R)-1,3-dimethyl-2-oxo-4-(tetrahydro-2H-pyran-4-yl)-1,2,3,4-tetrahydropyrido[2,3-b]pyrazin-6-yl]amino}-N,N-diethylbenzene-sulphonamide] | 22 | 39
C[C@H]1C(=O)N(C)c2ccc(Nc3cccc(S(=O)(=O)N[C@H]4CC[C@H](N5CCN(CC6CC6)CC5)CC4)c3)nc2N1C1CCOCC1 [Example 36, N-{trans-4-[4-(cyclopropylmethyl)-piperazin-1-yl]cyclohexyl}-3-{[(3S)-1,3-dimethyl-2-oxo-4-(tetrahydro-2H-pyran-4-yl)-1,2,3,4-tetrahydropyrido[2,3-b]pyrazin-6-yl]amino}-benzenesulphonamide] | 727 | 4230
C[C@@H]1C(=O)N(C)c2ccc(Nc3cccc(S(=O)(=O)N4CC5(CCC5)C4)c3)nc2N1C1CCN(C(=O)OC(C)(C)C)CC1 [Example 60, tert-butyl 4-[(3R)-6-{[3-(2-azaspiro[3.3]hept-2-ylsulphonyl)phenyl]-amino}-1,3-dimethyl-2-oxo-2,3-dihydropyrido[2,3-b]pyrazin-4(1H)-yl]piperidine-1-carboxylate] | 200 | 265
C[C@@H]1C(=O)N(C)c2ccc(Nc3cccc(S(=O)(=O)N(C)C)c3)nc2N1C1CCN(C(=O)OC(C)(C)C)CC1 [Example 61, tert-butyl 4-[(3R)-6-{[3-(dimethylsulphamoyl)-phenyl]amino}-1,3-dimethyl-2-oxo-2,3-dihydropyrido[2,3-b]pyrazin-4(1H)-yl]piperidine-1-carboxylate] | 208 | 166
C[C@@H]1C(=O)N(C)c2ccc(Nc3cccc(S(=O)(=O)N4CCN(C)CC4)c3)nc2N1C1CCN(C(=O)OC(C)(C)C)CC1 [Example 62, tert-butyl 4-[(3R)-1,3-dimethyl-6-({3-[(4-methylpiperazin-1-yl)sulphonyl]phenyl}-amino)-2-oxo-2,3-dihydropyrido[2,3-b]pyrazin-4(1H)-yl]piperidine-1-carboxylate] | 256 | 133
Cc1ccc(Nc2ccc3c(n2)N(C2CCOCC2)[C@H](C)C(=O)N3C)cc1S(N)(=O)=O [Example 63, 5-{[(3R)-1,3-dimethyl-2-oxo-4-(tetrahydro-2H-pyran-4-yl)-1,2,3,4-tetrahydropyrido[2,3-b]pyrazin-6-yl]amino}-2-methylbenzene-sulphonamide] | 163 | 158
